Assay results taken from US6967215B2, “Tetrahydrocarbazoles, a process for the preparation of those compounds, and the use thereof” (Ciba Specialty Chemicals Corporation, priority 2000, dated 2005).
Values belong to the compound of their own block, whether it stands above or below them.

Legend:
Assay in all cases: MIC, microtitre dilution test (growth by optical density at 620 nm)
[1] = tested on: Aspergillus niger ATCC 6175; assay type: cell-based; conditions: Table 4
Method: (§1) Nutrient: Mycological slant agar for the pre-culture of moulds [table] The test substances are predissolved in dimethyl sulfoxide (DMSO) and tested in a dilution series of 1:2. Bacteria and yeast are cultured overnight in CASO bouillon, the mould is cultured overnight on mycological slant agar, and washed off with 10 ml of 0.85% sodium chloride solution (+0.1% TritonX-100). All the test organisms are adjusted to an organism count of 1-5×10^6 CFU/ml using 0.85% sodium chloride solution. The test substances are pre-pipetted into microtitre plates in an amount of 8 μl per well. Pre-diluted organism suspensions are diluted 1:100 in CASO bouillon (bacteria and yeast) or Sabouraud 2% glucose bouillon (mould) and are added in an amount of 192 μl per well to the test substances. The test batches are incubated for 48 hours at 37° C. (bacteria and yeast) or for 5 days at 28° C. (mould). After incubation, the growth is evaluated by reference to the turbidity of the test batches (optical density) at 620 nm in a microplate reader. The minimum inhibitory concentration (MIC value) is the concentration of substance at which (compared with the growth of the control) an appreciable inhibition of growth (≦20% growth) of the test organisms is ascertained. One microtitre plate is used for each test organism and substance concentration. All the substances are tested in duplicate.

[2] = tested on: Trichophyton rubrum DSM 4167; assay type: cell-based; conditions: Table 4
Method: as §1

[3] = tested on: Tr. mentagrophytes ATCC 9533; assay type: cell-based; conditions: Table 4
Method: as §1

[4] = tested on: Trichoderma longibrachiatum DSM 768; assay type: cell-based; conditions: Table 4
Method: as §1

[5] = tested on: Epidermophyton floccosum DSM 10709; assay type: cell-based; conditions: Table 4
Method: as §1

[6] = tested on: Staphylococcus aureus (methicillin-resistant) NCTC 12493; assay type: cell-based; conditions: Table 4
Procedure, shortened: (§2)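 Compounds in DMSO, 1:2 dilution series, against bacteria adjusted to 1-5×10^6 CFU/ml then diluted 1:100 in CASO bouillon; 48 h at 37° C. Growth read as turbidity at 620 nm. MIC is the concentration giving ≦20% growth versus control; duplicate testing.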

[7] = tested on: Enterococcus hirae ATCC 10541; assay type: cell-based
Procedure, shortened: as §2

P. ovale ATCC 14521 = assay type: cell-based; conditions: Table 4
[8] = tested on: Porphyromonas gingivalis DSM 20709; assay type: cell-based; conditions: Table 4
Procedure, shortened: as §2

[9] = tested on: Staphylococcus epidermidis ATCC 12228; assay type: cell-based
Procedure, shortened: as §2

[10] = tested on: Staphylococcus aureus (methicillin-resistant) NCTC 11940; assay type: cell-based; conditions: Table 4
Procedure, shortened: as §2

[11] = tested on: Candida albicans ATCC 10259; assay type: cell-based
[12] = tested on: Staphylococcus aureus (rifampicin-resistant) NCTC 10703; assay type: cell-based; conditions: Table 4
Procedure, shortened: as §2

[13] = tested on: Propionibacterium acnes ATCC 25746; assay type: cell-based; conditions: Table 4
Procedure, shortened: as §2

[14] = tested on: Selenomonas artemidis ATCC 43528; assay type: cell-based; conditions: Table 4
Procedure, shortened: as §2

[15] = tested on: Corynebacterium xerosis ATCC 373; assay type: cell-based
Procedure, shortened: as §2

[16] = tested on: Staphylococcus aureus (penicillin-resistant) NCTC 10443; assay type: cell-based; conditions: Table 4
Procedure, shortened: as §2

[17] = tested on: Staphylococcus hominis DMS 20328; assay type: cell-based
Procedure, shortened: as §2

[18] = tested on: Streptococcus mutans ATCC 25175; assay type: cell-based; conditions: Table 4
Procedure, shortened: as §2

[19] = tested on: Micrococcus luteus ATCC 9341; assay type: cell-based
Procedure, shortened: as §2

[20] = tested on: Actinomyces viscosus DSM 43329; assay type: cell-based; conditions: Table 4
Procedure, shortened: as §2

[21] = tested on: Streptococcus sobrinus DSM 20742; assay type: cell-based; conditions: Table 4
Procedure, shortened: as §2

[22] = tested on: Staphylococus aureus ATCC 9144; assay type: cell-based, Staphylococcus aureus; conditions: Table 4
Method: as §1, with “All” for “Nutrient: Mycological slant agar for the pre-culture of moulds [table] The test substances are predissolved in dimethyl sulfoxide (DMSO) and tested in a dilution series of 1:2. Bacteria and yeast are cultured overnight in CASO bouillon, the mould is cultured overnight on mycological slant agar, and washed off with 10 ml of 0.85% sodium chloride solution (+0.1% TritonX-100). All”

MIC Aspergillus niger ATCC 6175 [1]: >10 ppm
MIC Trichophyton rubrum DSM 4167 [2]: 10 ppm
MIC Tr. mentagrophytes ATCC 9533 [3]: 10 ppm
MIC Trichoderma longibrachiatum DSM 768 [4]: >10 ppm
MIC Epidermophyton floccosum DSM 10709 [5]: 5.0 ppm
MIC Staphylococcus aureus (methicillin-resistant) NCTC 12493 [6]: 5.0 ppm
MIC Enterococcus hirae ATCC 10541 ([7]; Table 4): >10 ppm
MIC P. ovale ATCC 14521 (P. ovale ATCC 14521): >10 ppm
MIC Porphyromonas gingivalis DSM 20709 [8]: 3.125 ppm
MIC S. epidermidis ATCC 12228 ([9]; Table 4): 10 ppm
MIC Staphylococcus aureus (methicillin-resistant) NCTC 11940 [10]: 5.0 ppm
MIC Candida albicans ATCC 10259 ([11]; Table 4): >10 ppm
MIC Staphylococcus aureus (rifampicin-resistant) NCTC 10703 [12]: 5.0 ppm
MIC Propionibacterium acnes ATCC 25746 [13]: 6.25 ppm
MIC Selenomonas artemidis ATCC 43528 [14]: 50.0 ppm
MIC Corynebacterium xerosis ATCC 373 ([15]; Table 4): 5.0 ppm
MIC Staphylococcus aureus (penicillin-resistant) NCTC 10443 [16]: 5.0 ppm
MIC Staphylococcus hominis DSM 20328 ([17]; Table 4): 5.0 ppm
MIC Streptococcus mutans ATCC 25175 [18]: 5.0 ppm
MIC Micrococcus luteus ATCC 9341 ([19]; Table 4): 5.0 ppm
MIC Actinomyces viscosus DSM 43329 [20]: 6.25 ppm
MIC Streptococcus sobrinus DSM 20742 [21]: 6.25 ppm
MIC Staphylococus aureus ATCC 9144 [22]: 5.0 ppm
Structure (SMILES): O=C1NC(=O)C2C1c1[nH]c3ccc(Br)cc3c1C1CCCCCC12 (centres unmarked) [compound 32]

MIC Enterococcus hirae ATCC 10541 ([7]; Table 3): >120 ppm
MIC Staphylococcus epidermidis ATCC 12228 ([9]; Table 3): ≦3.75 ppm
MIC Candida albicans ATCC 10259 ([11]; Table 3): >120 ppm
MIC Corynebacterium xerosis ATCC 373 ([15]; Table 3): ≦3.75 ppm
MIC Staphylococcus hominis DSM 20328 ([17]; Table 3): 7.5 ppm
MIC Micrococcus luteus ATCC 9341 ([19]; Table 3): ≦3.75 ppm
Structure (SMILES): CCc1cccc2c3c([nH]c12)C1C(=O)NC(=O)C1C1CCCCCCC31 (centres unmarked) [compound 89]
